The source of these data is ChEMBL document CHEMBL4616704, “Discovery of an Atropisomeric PI3Kβ Selective Inhibitor through Optimization of the Hinge Binding Motif” (ACS Med Chem Lett, 2020).

A word on the MRT: it is a mean duration of stay, worked out from the concentration-time curve. By Papp A→B is commonly meant how fast a substance crosses the layer from the apical side.

Data set [1] is described as follows: Ocular toxicity in Beagle dog assessed as irreversible damage by measuring dilated pupils at 10 to 40 mg/kg/day administered for 7 days and measured from day 4 to day 7. Type of data set: organism-based, Canis lupus familiaris. Conditions: in vivo, 168 h.
The nature of data set [2]: Ocular toxicity in Beagle dog assessed as irreversible damage by measuring retinal necrosis at 10 to 100 mg/kg/day administered for 7 days by microscopic analysis. Type of data set: organism-based, Canis lupus familiaris. The conditions noted are these: in vivo, 168 h.
The nature of data set [3]: Ocular toxicity in Beagle dog assessed as irreversible damage by measuring choroidal inflammation at 10 to 100 mg/kg/day administered for 7 days measured on day 6 by ERG and OCT analysis. Type of data set: organism-based, Canis lupus familiaris. The conditions noted are these: in vivo, 168 h.
Data set [4] can be described thus: MRT in rhesus monkey at 1 mg/kg administered as iv infusion for 30 mins and measured after 24 hrs by ESI-LC/MS/MS analysis. Type of data set: ADME, organism-based, Macaca mulatta. The conditions noted are these: in vivo.
Data set [5] can be described thus: Apparent permeability across apical to basolateral side in human Caco2 cells at 10 uM after 1 to 2 hrs by LC/MS/MS analysis. Type of data set: ADME, cell-based. The conditions noted are these: Caco-2. A general note: Passage across Caco-2 layers is used to estimate intestinal permeability.
Data set [6] can be described thus: Protein binding in rhesus monkey plasma at 1 mg/kg administered as iv infusion for 30 mins and measured after 24 hrs by ESI-LC/MS/MS analysis. Type of data set: ADME, organism-based, Macaca mulatta. The conditions noted are these: read-out: PPB (converted).
The nature of data set [7]: Volume of distribution at steady state in cynomolgus monkey at 1 mg/kg administered as iv infusion for 30 mins and measured after 24 hrs by ESI-LC/MS/MS analysis. Type of data set: ADME, organism-based, Macaca fascicularis. Conditions: in vivo, read-out: Vdss.
A short description of data set [8]: MRT in Sprague-Dawley rat at 1 mg/kg administered as iv infusion for 30 mins and measured after 24 hrs by ESI-LC/MS/MS analysis. Type of data set: ADME, organism-based. The conditions noted are these: in vivo.
Data set [9] is described as follows: Volume of distribution at steady state in rhesus monkey at 1 mg/kg administered as iv infusion for 30 mins and measured after 24 hrs by ESI-LC/MS/MS analysis. Type of data set: ADME, organism-based, Macaca mulatta. Conditions: in vivo, read-out: Vdss.
Data set [10] can be described thus: Volume of distribution at steady state in Beagle dog at 1 mg/kg administered as iv infusion for 30 mins and measured after 24 hrs by ESI-LC/MS/MS analysis. Conditions: in vivo, read-out: Vdss. Type of data set: ADME, organism-based, Canis lupus familiaris.

Molecules are shown by their SMILES.

With `Cc1nc2c(-c3nnc[nH]3)cc(-c3ccnc(C#N)c3)cc2n1-c1ccnc2c(F)ccc(F)c12`, the Activity result in [1], in [2] and in [3] was “Toxic” in each case. Further, the mean residence time (MRT) was 5.5 h in [4] and 1.3 h in data set [8]. In addition, in data set [5], the Papp A→B at 10 µM came out at 22 ×10⁻⁶ cm/s. Besides, the fraction unbound at 24 h in data set [6] is 0.19. Besides, the figures for the Vd in data set [7], in data set [9] and in [10] were 1.3 L/kg, 2.6 L/kg and 2.5 L/kg, respectively.
